Laboratory results as given in US8063220B2, “Sulfonyl-quinoline derivatives” (Richter Gedeon Nyrt., priority 2007, dated 2011).

Columns and labels:
rat mGluR5 = target: T1, rat mGluR5 (Rattus norvegicus, UniProt P31424); assay: MGluR5 receptor binding test ([3H]-M-MPEP displacement, rat cerebro-cortical membrane preparation); settings: rat mGluR5, [3H]-M-MPEP 2 nM; read-out: mGlu5 Ki
T1 construct: Rat cerebro-cortical membrane preparation was used; from tissue; host or cells: rat cerebral cortex (membrane preparation)
Method: Rat cerebro-cortical membrane preparation was used to determine the binding characteristics of reference compounds and novel compounds to the rat mGluR5. The A18 cell line expressing hmGluR5a (purchased from Euroscreen) was used to determine binding characteristics of the chemical compounds to the human mGluR5a receptor. [3H]-M-MPEP (2 nM) was used as radioligand. The nonspecific binding was determined in the presence of 10 μM M-MPEP.

rat mGluR1 = target: T2, rat mGluR1 (Rattus norvegicus, UniProt P23385); assay: MGluR1 receptor binding test ([3H]R214127 displacement, rat cerebellar membrane preparation); settings: rat mGluR1, [3H]R214127 3 nM; read-out: mGlu1 Ki
T2 construct: rat cerebellar membrane preparation was used; from tissue; host or cells: rat cerebellum (membrane preparation)
Outline: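 Rat cerebellar membranes with 3 nM [3H]R214127; nonspecific binding defined by 1 μM R214127. IC50 from displacement curves by nonlinear regression, converted to Ki by Cheng–Prusoff.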

T2 sequence (P23385 19-1199): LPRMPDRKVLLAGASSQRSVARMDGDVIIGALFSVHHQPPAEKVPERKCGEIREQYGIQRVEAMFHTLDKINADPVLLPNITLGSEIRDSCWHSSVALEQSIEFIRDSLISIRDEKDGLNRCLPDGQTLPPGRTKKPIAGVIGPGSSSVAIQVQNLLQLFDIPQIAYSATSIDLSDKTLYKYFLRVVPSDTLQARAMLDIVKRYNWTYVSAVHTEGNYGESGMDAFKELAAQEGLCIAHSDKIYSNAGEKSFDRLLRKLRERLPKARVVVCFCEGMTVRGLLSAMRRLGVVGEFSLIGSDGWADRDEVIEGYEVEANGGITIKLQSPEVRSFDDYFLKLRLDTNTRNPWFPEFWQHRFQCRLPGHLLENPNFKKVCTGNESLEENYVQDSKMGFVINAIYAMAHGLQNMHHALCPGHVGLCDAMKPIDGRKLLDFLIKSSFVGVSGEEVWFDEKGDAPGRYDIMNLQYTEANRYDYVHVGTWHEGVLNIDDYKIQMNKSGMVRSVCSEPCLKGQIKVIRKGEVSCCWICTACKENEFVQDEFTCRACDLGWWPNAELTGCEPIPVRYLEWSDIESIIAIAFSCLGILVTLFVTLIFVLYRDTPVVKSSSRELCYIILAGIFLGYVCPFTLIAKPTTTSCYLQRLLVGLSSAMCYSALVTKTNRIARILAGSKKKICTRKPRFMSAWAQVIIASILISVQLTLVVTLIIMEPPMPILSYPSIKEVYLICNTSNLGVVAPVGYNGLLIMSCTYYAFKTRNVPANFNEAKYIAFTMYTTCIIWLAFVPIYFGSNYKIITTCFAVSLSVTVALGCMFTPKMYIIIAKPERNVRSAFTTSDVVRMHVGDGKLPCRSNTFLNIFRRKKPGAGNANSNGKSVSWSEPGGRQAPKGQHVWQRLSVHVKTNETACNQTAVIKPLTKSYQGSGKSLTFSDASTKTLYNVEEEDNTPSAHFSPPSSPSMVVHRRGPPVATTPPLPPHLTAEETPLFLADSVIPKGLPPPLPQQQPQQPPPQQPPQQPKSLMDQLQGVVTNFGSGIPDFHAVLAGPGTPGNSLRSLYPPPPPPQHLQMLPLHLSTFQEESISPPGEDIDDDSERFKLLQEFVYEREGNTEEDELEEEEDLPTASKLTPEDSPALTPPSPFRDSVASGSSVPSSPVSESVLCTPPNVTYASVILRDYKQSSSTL
T1 sequence (P31424 21-1203): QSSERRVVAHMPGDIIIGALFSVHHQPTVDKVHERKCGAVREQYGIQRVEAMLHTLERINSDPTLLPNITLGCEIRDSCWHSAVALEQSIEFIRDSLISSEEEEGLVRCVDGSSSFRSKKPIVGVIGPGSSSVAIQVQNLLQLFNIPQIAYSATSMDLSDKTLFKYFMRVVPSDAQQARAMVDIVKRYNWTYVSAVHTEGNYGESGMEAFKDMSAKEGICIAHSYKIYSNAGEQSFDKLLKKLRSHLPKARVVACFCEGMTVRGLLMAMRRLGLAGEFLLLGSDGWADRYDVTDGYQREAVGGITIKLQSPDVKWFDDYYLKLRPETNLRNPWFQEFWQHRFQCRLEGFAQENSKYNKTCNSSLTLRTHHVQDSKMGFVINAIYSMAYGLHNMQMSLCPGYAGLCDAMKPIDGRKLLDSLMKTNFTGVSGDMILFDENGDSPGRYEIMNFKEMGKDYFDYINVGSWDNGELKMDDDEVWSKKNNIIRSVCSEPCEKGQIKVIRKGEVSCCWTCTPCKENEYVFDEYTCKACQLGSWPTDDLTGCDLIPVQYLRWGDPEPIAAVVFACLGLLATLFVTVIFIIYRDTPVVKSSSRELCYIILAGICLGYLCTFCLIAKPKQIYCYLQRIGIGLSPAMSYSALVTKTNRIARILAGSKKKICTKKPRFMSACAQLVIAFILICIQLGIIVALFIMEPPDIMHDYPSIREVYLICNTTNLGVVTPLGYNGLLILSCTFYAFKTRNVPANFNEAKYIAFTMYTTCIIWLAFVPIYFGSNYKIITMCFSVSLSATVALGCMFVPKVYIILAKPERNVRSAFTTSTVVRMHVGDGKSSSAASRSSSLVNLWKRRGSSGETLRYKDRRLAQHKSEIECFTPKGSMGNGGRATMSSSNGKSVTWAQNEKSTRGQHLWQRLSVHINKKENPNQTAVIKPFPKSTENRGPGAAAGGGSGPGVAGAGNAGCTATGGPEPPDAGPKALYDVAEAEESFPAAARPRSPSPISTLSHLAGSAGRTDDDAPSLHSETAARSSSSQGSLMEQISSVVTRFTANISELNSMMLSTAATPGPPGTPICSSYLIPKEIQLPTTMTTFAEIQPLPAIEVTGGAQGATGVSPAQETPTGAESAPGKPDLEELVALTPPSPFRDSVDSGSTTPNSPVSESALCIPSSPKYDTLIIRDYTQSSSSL

Ki (rat mGluR5) | Ki (rat mGluR1) | SMILES
< 200 nM | > 500 nM | O=S(=O)(c1cc(F)cc(F)c1)c1cnc2cc(Cl)ccc2c1-c1ccc(F)cc1 [Compound 181]
< 200 nM | > 500 nM | O=S(=O)(c1ccc(F)c(F)c1)c1cnc2cc(Cl)ccc2c1-c1ccc(F)cc1 [Compound 182]
< 200 nM | > 500 nM | O=S(=O)(c1ccc(F)c(Cl)c1)c1cnc2cc(Cl)ccc2c1-c1ccc(F)cc1 [Compound 183]
> 500 nM | > 500 nM | O=S(=O)(c1ccc(Cl)cc1)c1cnc2c(Cl)cccc2c1-c1ccc(Cl)c(Cl)c1 [Compound 184]
> 500 nM | > 500 nM | O=S(=O)(c1ccc(Cl)cc1)c1cnc2c(Cl)ccc(Cl)c2c1-c1cccc(Cl)c1 [Compound 185]
< 200 nM | > 500 nM | N#Cc1cc(F)cc(S(=O)(=O)c2cnc3cc(Cl)ccc3c2-c2ccc(F)cc2)c1 [Compound 186, 7-chloro-3-(3-cyano-5-fluoro-benzenesulfonyl)-4-(4-fluoro-phenyl)-quinoline]
200 to 500 nM | > 500 nM | O=S(=O)(c1ccc(Cl)s1)c1cnc2cc(Cl)ccc2c1-c1ccc(F)cc1 [Compound 187]
200 to 500 nM | > 500 nM | O=S(=O)(c1ccc(Cl)c(F)c1)c1cnc2cc(F)c(Cl)cc2c1-c1cccc(F)c1 [Compound 188]
< 200 nM | > 500 nM | O=S(=O)(c1ccc(Cl)c(F)c1)c1cnc2cc(F)c(Cl)cc2c1-c1ccc(Cl)cc1 [Compound 189]
< 200 nM | > 500 nM | O=S(=O)(c1ccc(Cl)c(F)c1)c1cnc2cc(F)c(Cl)cc2c1-c1ccc(F)cc1 [Compound 190]
200 to 500 nM | > 500 nM | N#Cc1cccc(S(=O)(=O)c2cnc3cc(C#N)ccc3c2-c2ccc(Cl)cc2)c1 [Compound 191]
> 500 nM | > 500 nM | N#Cc1ccc2c(-c3ccc(F)cc3)c(S(=O)(=O)c3ccc(F)c(F)c3)cnc2c1 [Compound 192]
200 to 500 nM | > 500 nM | N#Cc1cccc(S(=O)(=O)c2cnc3cc(C#N)ccc3c2-c2ccc(F)cc2)c1 [Compound 193]
> 500 nM | > 500 nM | O=S(=O)(c1ccc(F)c(Cl)c1)c1cnc2cc(F)c(Cl)cc2c1-c1ccccc1F [Compound 194]
< 200 nM | > 500 nM | N#Cc1ccc2c(-c3ccccc3F)c(S(=O)(=O)c3ccc(F)c(Cl)c3)cnc2c1 [Compound 195]
< 200 nM | > 500 nM | O=S(=O)(c1ccc(F)c(F)c1)c1cnc2c(F)c(Cl)ccc2c1-c1cccc(F)c1 [Compound 196]
< 200 nM | > 500 nM | O=S(=O)(c1ccc(F)c(Cl)c1)c1cnc2c(F)c(Cl)ccc2c1-c1ccc(Cl)cc1 [Compound 197]
> 500 nM | > 500 nM | O=S(=O)(c1cc(F)cc(F)c1)c1cnc2cc(F)c(Cl)cc2c1-c1ccc(Cl)cc1 [Compound 198]
200 to 500 nM | > 500 nM | N#Cc1ccc2c(-c3ccccc3F)c(S(=O)(=O)c3cc(F)cc(F)c3)cnc2c1 [Compound 199]
> 500 nM | > 500 nM | N#Cc1ccc2ncc(S(=O)(=O)c3cc(Cl)cc(Cl)c3)c(-c3ccccc3F)c2c1 [Compound 200]
> 500 nM | > 500 nM | O=S(=O)(c1cc(F)cc(F)c1)c1cnc2cc(Cl)c(F)cc2c1-c1ccc(Cl)cc1 [Compound 201]

Ki (rat mGluR5) | Ki (rat mGluR1) | SMILES
200 to 500 nM | > 500 nM | O=S(=O)(c1cc(F)cc(F)c1)c1cnc2cc(Cl)c(F)cc2c1-c1ccc(F)cc1 [Compound 202]
< 200 nM | > 500 nM | O=S(=O)(c1ccc(F)c(Cl)c1)c1cnc2c(F)c(Cl)ccc2c1-c1cccc(F)c1 [Compound 203]
< 200 nM | > 500 nM | O=S(=O)(c1ccc(F)c(F)c1)c1cnc2c(F)c(Cl)ccc2c1-c1ccc(Cl)cc1 [Compound 204]
< 200 nM | > 500 nM | O=S(=O)(c1ccc(F)c(Cl)c1)c1cnc2c(F)c(Cl)ccc2c1-c1ccc(F)cc1 [Compound 205]
< 200 nM | > 500 nM | N#Cc1cc(S(=O)(=O)c2cnc3ccccc3c2-c2cccc(F)c2)ccc1F [Compound 206]
< 200 nM | > 500 nM | N#Cc1cc(F)cc(S(=O)(=O)c2cnc3ccccc3c2-c2cccc(F)c2)c1 [Compound 207]
< 200 nM | 200 to 500 nM | O=S(=O)(c1ccc(F)c(Cl)c1)c1cnc2c(F)cccc2c1-c1ccc(Cl)cc1 [Compound 208]
< 200 nM | 200 to 500 nM | O=S(=O)(c1ccc(F)c(Cl)c1)c1cnc2c(F)cccc2c1-c1ccccc1F [Compound 209]
< 200 nM | 200 to 500 nM | O=S(=O)(c1ccc(F)c(Cl)c1)c1cnc2c(F)cccc2c1-c1cccc(F)c1 [Compound 210]
< 200 nM | > 500 nM | N#Cc1cc(S(=O)(=O)c2cnc3ccccc3c2-c2ccc(F)cc2)ccc1F [Compound 211]
< 200 nM | 200 to 500 nM | O=S(=O)(c1ccc(F)c(Cl)c1)c1cnc2c(F)cccc2c1-c1ccc(F)cc1 [Compound 212]
< 200 nM | > 500 nM | N#Cc1cccc(S(=O)(=O)c2cnc3c(F)cccc3c2-c2ccccc2F)c1 [Compound 213]
< 200 nM | > 500 nM | N#Cc1cccc(S(=O)(=O)c2cnc3ccccc3c2-c2cccc(F)c2)c1 [Compound 214]
< 200 nM | > 500 nM | N#Cc1cccc(S(=O)(=O)c2cnc3c(F)cccc3c2-c2cccc(F)c2)c1 [Compound 215]
< 200 nM | > 500 nM | N#Cc1cc(S(=O)(=O)c2cnc3cc(F)ccc3c2-c2cccc(F)c2)ccc1F [Compound 216]
< 200 nM | > 500 nM | N#Cc1cc(S(=O)(=O)c2cnc3ccccc3c2-c2cccc(Cl)c2)ccc1F [Compound 217]
< 200 nM | > 500 nM | N#Cc1cc(F)cc(S(=O)(=O)c2cnc3cc(F)ccc3c2-c2ccc(F)cc2)c1 [Compound 218]
< 200 nM | < 200 nM | N#Cc1cc(S(=O)(=O)c2cnc3cc(Cl)ccc3c2-c2cccc(F)c2)ccc1F [Compound 219]
< 200 nM | > 500 nM | O=S(=O)(c1cc(Cl)cc(Cl)c1)c1cnc2c(F)cccc2c1-c1ccc(F)c(F)c1 [Compound 220]
< 200 nM | 200 to 500 nM | N#Cc1cc(F)cc(S(=O)(=O)c2cnc3cc(Cl)ccc3c2-c2cccc(F)c2)c1 [Compound 221]
< 200 nM | > 500 nM | N#Cc1cccc(S(=O)(=O)c2cnc3c(F)cccc3c2-c2ccc(F)cc2)c1 [Compound 222]

Ki (rat mGluR5) | Ki (rat mGluR1) | SMILES
< 200 nM | > 500 nM | O=S(=O)(c1cc(Cl)cc(Cl)c1)c1cnc2c(F)cccc2c1-c1ccccc1F [Compound 223]
< 200 nM | 200 to 500 nM | O=S(=O)(c1ccc(F)c(Cl)c1)c1cnc2cc(F)ccc2c1-c1ccccc1F [Compound 224]
< 200 nM | > 500 nM | N#Cc1cccc(S(=O)(=O)c2cnc3c(F)cccc3c2-c2ccc(Cl)cc2)c1 [Compound 225]
< 200 nM | > 500 nM | N#Cc1cc(F)cc(S(=O)(=O)c2cnc3ccccc3c2-c2cccc(Cl)c2)c1 [Compound 226]
< 200 nM | < 200 nM | N#Cc1cccc(S(=O)(=O)c2cnc3cc(Cl)ccc3c2-c2ccccc2F)c1 [Compound 227]
< 200 nM | > 500 nM | N#Cc1cc(F)cc(S(=O)(=O)c2cnc3cc(F)ccc3c2-c2cccc(F)c2)c1 [Compound 228]
< 200 nM | 200 to 500 nM | O=S(=O)(c1ccc(F)c(Cl)c1)c1cnc2c(F)cccc2c1-c1cccc(Cl)c1 [Compound 229]
< 200 nM | > 500 nM | N#Cc1cccc(S(=O)(=O)c2cnc3cc(F)ccc3c2-c2ccccc2F)c1 [Compound 230]
< 200 nM | > 500 nM | N#Cc1cc(F)cc(S(=O)(=O)c2cnc3cc(F)ccc3c2-c2ccc(F)c(F)c2)c1 [Compound 231]
< 200 nM | > 500 nM | N#Cc1cc(S(=O)(=O)c2cnc3ccccc3c2-c2ccc(Cl)c(Cl)c2)ccc1F [Compound 232]
< 200 nM | < 200 nM | O=S(=O)(c1ccc(F)c(Cl)c1)c1cnc2cc(Cl)ccc2c1-c1ccccc1F [Compound 233]
< 200 nM | < 200 nM | N#Cc1cccc(S(=O)(=O)c2cnc3cc(Cl)ccc3c2-c2cccc(F)c2)c1 [Compound 234]
< 200 nM | > 500 nM | N#Cc1cc(S(=O)(=O)c2cnc3cc(F)ccc3c2-c2cccc(Cl)c2)ccc1F [Compound 235]
< 200 nM | 200 to 500 nM | O=S(=O)(c1ccc(F)c(F)c1)c1cnc2c(F)cccc2c1-c1cc(F)cc(F)c1 [Compound 236]
< 200 nM | > 500 nM | O=S(=O)(c1ccc(F)c(F)c1)c1cnc2ccccc2c1-c1ccc(F)cc1 [Compound 237]
< 200 nM | > 500 nM | O=S(=O)(c1ccc(F)c(F)c1)c1cnc2c(F)cccc2c1-c1ccc(F)c(F)c1 [Compound 238]
< 200 nM | > 500 nM | O=S(=O)(c1cc(Cl)cc(Cl)c1)c1cnc2cc(F)ccc2c1-c1ccc(F)c(F)c1 [Compound 239]
< 200 nM | > 500 nM | O=S(=O)(c1ccc(F)c(F)c1)c1cnc2ccccc2c1-c1cccc(F)c1 [Compound 240]
< 200 nM | 200 to 500 nM | N#Cc1cccc(S(=O)(=O)c2cnc3cc(Cl)ccc3c2-c2ccc(F)cc2)c1 [Compound 241]
< 200 nM | < 200 nM | N#Cc1cc(S(=O)(=O)c2cnc3cc(Cl)ccc3c2-c2cccc(Cl)c2)ccc1F [Compound 242]
